The test system of series [1] is SZ95 sebocytes. In words: Viability MTT-assay on sebocytes, 48 h. Format: cell-based, human. As to conditions: 30 μM. The method, then: (§1) Human immortalized SZ95 sebocytes, originated from human facial sebaceous glands[50] were provided by prof. Christos C. Zouboulis, and were cultured in Sebomed® Basal Medium (Cat. No. F8205; Sigma-Aldrich) supplemented with 10% FBS (Gibco-Thermo Fisher Scientific), 1 mM CaCl2 (Cat. No. C7902; Sigma-Aldrich), 5 ng/ml human epidermal growth factor (Cat. No. E9644; Sigma-Aldrich), and MycoZap™ Plus-CL (1:500; Lonza). The medium was changed every other day, and cells were subcultured at 60–70% confluence.
The viability of HaCaT keratinocytes and SZ95 sebocytes was determined by MTT-assay[58] (Cat. No. M5655; Sigma-Aldrich) measuring the conversion of the tetrazolium salt to formazan by mitochondrial dehydrogenases. Cells were plated in 96-well plates (20,000 cells/well), and were treated as indicated. Cells were then incubated with 0.5 mg/ml MTT reagent for 3 h, and concentration of formazan crystals (as an indicator of number of viable cells) was determined colorimetrically at 565 nm by using FlexStation 3 multi-mode microplate reader (Molecular Devices). Results were expressed as percentage of vehicle-treated control regarded as 100%.
Background: Formazan colour is commonly taken as a measure of viable cells.

The test system of series [2] is MRSA (Methicillin Resistant Staphylococcus aureus). In words: MIC, broth micro dilution.
Method: (§6) According to CLSI guideline the Minimal Inhibitory Concentrations (MICs) of the prepared compounds were determined with the broth micro dilution method. After an overnight growth on 5% bovine blood agar plates at 35 °C bacterial strains were suspended in physiological saline in order to reach the density of 0.5 McFarland for inoculation. Stock solutions containing different concentrations of the substances were prepared in DMSO and H2O (1:1). These were twofold serially diluted from 256 to 0.5 mg/l in Mueller–Hinton broth, and 100 ml of each dilution was inoculated with 10 ml of each bacterial suspension.
Series [3] deals with Klebsiella pneumoniae carbapenemase-producing bacteria. Put plainly: Antibacterial effect, broth micro dilution.
The test system of another series is Bacillus subtilis. In words: MIC, broth micro dilution.
Series [4] deals with SARS-CoV-2. In words: SARS-CoV-2 cytopathic effect (CPE) inhibition assay in Vero E6 cells (XTT). Format: cell-based. The conditions noted are these: Vero E6 cells, 3 days post-infection, XTT. The method, then:
(§2) CBD and CBG derivatives were further tested for their ability to inhibit SARS-CoV-2 replication in Vero E6 cells. Initially, the inhibition of virus-induced cytopathic effect was measured by addition of twofold serial dilutions of each derivative to the cells, followed by the infection with SARS-CoV-2 and determination of the cell viability 3 days post-infection by XTT assay. Concurrently, the cytotoxicity of each compound was assessed from identical dilutions in uninfected Vero E6 cells. To confirm anti-SARS-CoV-2 activity in the CPE inhibition assay, selected compounds were tested in immunofluorescence assay, where inhibition of SARS-CoV-2 replication was monitored as reduction in nucleoprotein expression using fluorescence microscope. […] Among the CBG derivatives, we can find quite cytotoxic and non-cytotoxic derivatives as well.
(§3) For CPE-based assay, two-fold fold serial dilutions of compounds from 100 µM were added in triplicate in a 384-well plate with 5000 Vero E6 cells in DMEM medium with 2% FBS, 100 U of penicillin/ml and 100 µg of streptomycin/ml (all Merck). After 1 h incubation SARS-CoV-2 (strain hCoV-19/Czech Republic/NRL_6632_2/2020) was added at multiplicity of infection […]. Following three days incubation at 37 °C in 5% CO2 the cell viability was determined by addition of XTT solution (Sigma-Aldrich) for 4 h and the absorbance was measured using EnVision plate reader (Perkin Elmer). Drug concentrations required to reduce viral cytopathic effect by 50% (EC50) were calculated using nonlinear regression from plots of percentage cell viability versus log10 drug concentration using GraphPad Prism (version 9.0.0, GraphPad Software, LLC). For immunofluorescence assay, two-fold fold serial dilutions of compounds from 100 µM were added in triplicate in 96-well plate with 15,000 Vero E6 cells plated day before in the same medium as above. After 1 h incubation, SARS-CoV-2 was added at multiplicity of infection 0.05 IU/cell. After three days of incubation, cells were fixed with 4% paraformaldehyde, permeabilized with 0.2% Triton X100 (both Merck), washed, incubated with anti-SARS-CoV-2antibody (mouse monoclonal antibody detecting SARS-CoV-2 nucleoprotein) for 2 h at room temperature. Followed by 1.5 h incubation with Cy3-labeled donkey anti-mouse IgG (Jackson ImmunoResearch Europe) and documented using fluorescence microscope with camera (Olympus). Images were processed in ImageJ software (NIH) and compound concentrations required to reduce fluorescence by 50% (EC50s) were calculated from plots of percentage of fluorescent cells versus log10 drug concentration using nonlinear regression analysis as above. Cytotoxicity was evaluated by incubating with the same two-fold serial dilutions of each compound as above with Vero E6 cells in 384-well plate.
On the technique in general: Damage to the host cells serves as the signal in cytopathic effect assays.

Series [5] has as its system Staphylococcus epidermidis biofilm forming. In words: MIC, broth micro dilution.
Method: as §6
In series [6] the test system is Enterococcus faecalis 15 376 VanA. Put plainly: MIC, broth micro dilution.
Method: as §6
A short description of a further series: in vitro. As to conditions: African green monkey.
Series [7] relates to Enterococcus faecalis 29 212. In words: MIC, broth micro dilution.
For series [8], the system named is MSSA (Methicillin Sensitive Staphylococcus aureus). Put plainly: MIC, broth micro dilution.
Method: as §6
A further series deals with Escherichia coli. Put plainly: Antibacterial effect, broth micro dilution. Format: cell-based.
The subject of a further series is MCF7 cells. Put plainly: Antiproliferative MTT assay, 72 h. The series is classed as cell-based, human. The source says: (§4) Human adherent cancer cell lines A2780, MDA-MB-231 and MCF-7 were obtained from ECACC (European Collection of Cell Cultures, Salisbury, UK; Cat. No.93112519, 92020424, 86012803, respectively). SiHa cell line was obtained from ATCC (American Tissue Culture Collection, Manassas, Virginia, USA; Cat. No. HTB-35). All cell lines used for antiproliferative assay were maintained in Eagle's Minimum Essential Medium (EMEM) completed with 10% fetal bovine serum (FBS), 1% non-essential amino acid solution, and 1% penicillin, streptomycin, and amphotericin B mixture under cell culture conditions described before. All the utilized media and supplements were purchased from Lonza Group Ltd. (Basel, Switzerland).
(§5) The antiproliferative actions of the prepared molecules were determined by the same assay against a panel of adherent human cancer cell lines containing cervical (SiHa), ovarian (A2780) and breast (MCF7, MDA-MB-231) cell lines. Cells were plated onto 96-well microplates (5000 cells/well) and after an overnight incubation treated with two concentrations (10 or 30 μM) of the test substances for 72 h under cell culture conditions. Subsequently, MTT (5 mg/ml in phosphate buffer) was added to the wells, followed by incubation for 4 h. The supernatant was removed, the formazan crystals were then dissolved in 100 µl DMSO. Finally, absorbance values were determined by a microplate reader (BMG Labtech, Ortenberg, Germany) at 545 nm. Two independent measurements were performed with five parallel wells. Results were expressed as percentage of cell proliferation inhibition compared to non-treated control samples regarded as 0%.

Another series concerns A2780 cells. In words: Antiproliferative MTT assay, 72 h. Format: cell-based, human. The conditions noted are these: Homo sapiens, A2780, 30 μM, read-out: inhibition of the proliferation.
Excerpt: as §4, §5

In series [9] the test system is Enterococcus faecalis 51299 VanB. Put plainly: MIC, broth micro dilution.
Method: as §6
Series [10] has as its system Staphylococcus epidermidis mecA. In words: MIC, broth micro dilution.
Method: as §6
The subject of a further series is Pseudomonas aeruginosa. In words: Antibacterial effect, broth micro dilution. Format: cell-based.
In series [11] the test system is multidrug-resistant Acinetobacter baumannii. In words: Antibacterial effect, broth micro dilution.
Method: as §6
Series [12] concerns SARS-CoV-2. In words: SARS-CoV-2 immunofluorescence assay (nucleoprotein expression) in Vero E6 cells. As to conditions: three days. Format: cell-based. The method, then: as §2, §3
The test system of the next series is Vero E6 cells. As to conditions: uninfected Vero E6 cells, three days, XTT.
The subject of series [13] is SZ95 sebocytes. In words: Nile Red-assay, spontaneous sebaceous lipogenesis. The series is classed as cell-based, human. The conditions noted are these: applied alone, 48 h.
In series [14] the test system is SZ95 sebocytes. Put plainly: Nile Red-assay, arachidonic acid-induced lipogenesis. Format: cell-based, human. The conditions noted are these: 50 μM arachidonic acid, 48 h. The method, then:
as §1
For quantitative measurement of sebaceous (neutral) lipid content, SZ95 sebocytes (20,000 cells/well) were cultured in 96-well “black well/clear bottom” plates (Cat. No. 655090; Greiner Bio-One, Frickenhausen, Germany), and were treated with compounds in the presence or absence of arachidonic acid (AA; Cat. No. 90010; Cayman Chemical Company, Ann Arbor, MI, USA) or its vehicle (absolute ethanol) as indicated. Subsequently, supernatants were discarded, cells were washed twice with phosphate-buffered saline (PBS; 115 mM NaCl, 20 mM Na2HPO4, pH 7.4; all from Sigma-Aldrich), and 100 µl of a 1 µg/ml Nile Red (Cat. No. N3013; Sigma-Aldrich) solution in PBS was added to each well. The plates were then incubated at 37 °C for 30 min, and fluorescence was measured on FlexStation 3 multimode microplate reader (Molecular Devices, San Francisco, CA, USA). Results, measured in relative fluorescence units, are expressed as percentage of the vehicle (absolute ethanol; Cat. No. 20821.296; VWR International)-treated control regarded as 100%, using 485 nm excitation and 565 nm emission wavelengths.

Values after ≈ are worked out from the molar mass of the structure shown. Read-outs that look alike come from different tables or passages of the source.

Method for Bacillus subtilis: as §6

As a reminder, the EC50 is the concentration needed to bring the measured effect to its halfway point. In the case of `CCCCCc1cc(O)c(C/C=C(\C)CCC=C(C)C)c(O)c1` [Compound 2, (−)-cannabigerol], the “viability (MTT signal intensity)” value in the series with SZ95 sebocytes [1] was “tended to suppress viability”. Besides, the MIC was found to be 4 µg/mL (≈ 12.6 µM) in series [2] (Staphylococcus aureus); 2 µg/mL (≈ 6.32 µM) with Bacillus subtilis; 8 µg/mL (≈ 25.3 µM) in series [5] (Staphylococcus epidermidis); 4 µg/mL (≈ 12.6 µM) in series [6] (Enterococcus faecalis, 15376VANA); 4 µg/mL (≈ 12.6 µM) in series [7] (Enterococcus faecalis, 29212); 4 µg/mL (≈ 12.6 µM) in series [8] (Staphylococcus aureus). The MIC worked out at 4 µg/mL (≈ 12.6 µM) in series [9] (Enterococcus faecalis, 51299VANB) and 8 µg/mL (≈ 25.3 µM) in series [10] (Staphylococcus epidermidis). Further, the “antibacterial effect (no effect up to)” value (in series [3]; in the series with Escherichia coli; with Pseudomonas aeruginosa; in series [11]) was greater than 256 µg/mL throughout. In addition, in the series on SARS-CoV-2 [4] (Severe acute respiratory syndrome coronavirus 2, Vero C1008, 72 h), the concentration giving a half-maximal response (EC50) was greater than 11 µM. Besides, the CC50 in “in vitro” is roughly 11 µM. For the same compound, the inhibition at 30 µM with MCF7 cells (Homo sapiens, MCF7, 30 μM, read-out: inhibition of the proliferation) is greater than 90%; in the series with A2780 cells, greater than 90%.
For the compound `C=C(C)[C@@H]1CCC(C)=C[C@H]1c1c(O)cc(CCCCC)c2c1OCN(CCCC)C2` [Compound 8], in the series with SZ95 sebocytes [1], the “viability (MTT signal intensity)” value is recorded as “cytotoxic effects”. Further, the EC50 in the series on SARS-CoV-2 [12] came out at 31 ± 1.1 µM; with SARS-CoV-2 [4] it was 21 ± 3.7 µM. Also, the MIC in [2] is greater than 256 µg/mL; against Bacillus subtilis it was greater than 256 µg/mL; in series [5] (Staphylococcus epidermidis biofilm forming), greater than 256 µg/mL; in series [6] (Enterococcus faecalis 15 376 VanA), greater than 256 µg/mL; in series [7] (Enterococcus faecalis 29 212) it was 2 µg/mL (≈ 4.86 µM); in [8], greater than 256 µg/mL. In addition, the values for the MIC in series [9] (Enterococcus faecalis 51299 VanB) and in [10] (Staphylococcus epidermidis mecA) were 2 µg/mL (≈ 4.86 µM) and greater than 256 µg/mL, respectively. In the series on Vero E6 cells, this compound came in with a CC50 greater than 100 µM. Besides, the “promotion of spontaneous sebaceous lipogenesis, significance” value with SZ95 sebocytes [13] (10 and 30 μM) was “statistically significant”. Also, the “spontaneous, homeostatic sebaceous lipogenesis” value with SZ95 sebocytes [13] is given as “rather promote spontaneous, homeostatic sebaceous lipogenesis”. Besides, in the series with SZ95 sebocytes [14], the “effect on the lipogenic effect of arachidonic acid (AA)” value was “mimic this lipostatic effect”. Besides, the “inhibition of the proliferation (in words)” value in the series on MCF7 cells (MCF7, 10 μM) was “much more potent than the parent CBD”. Moreover, the “antiproliferative activity (in words)” value with MCF7 cells (MCF7, 10 and 30 μM) is “more sensitive”.
